The record followed here is ChEMBL document CHEMBL1133938, “Parallel solid-phase synthesis of zatebradine analogues as potential I(f) channel blockers” (2001).

The test is filed under the species Cavia porcellus. As to the kind of experiment: Inhibitory activity to reduce the spontaneous beating of isolated guinea-pig atria in a concentration-dependent manner at the dose of 3 uM. The class given is functional.
Turning to `COc1cc2c(cc1OC)CC(=O)N(CCCNCCOc1ccccc1)C=C2`, the Max inhibition was 80% and the inhibition (commonly the percentage by which the read-out fell short of the control) at 3 µM stood at 53%.

As for `COc1ccc(CCNCCCN2C=Cc3cc(OC)c(OC)cc3CC2=O)cc1`, the Max inhibition is 69% and at 3 µM the inhibition was 60%.

The compound `C=CCN(CCCN1C=Cc2cc(OC)c(OC)cc2CC1=O)CCc1ccccc1` showed a Max inhibition of 71% and an inhibition at 3 µM of 53%.

As to `COc1cc2c(cc1OC)CC(=O)N(CCCNCCCCc1ccccc1)C=C2`, the Max inhibition came to 84% and the inhibition at 3 µM stood at 43%.

`COc1cc2c(cc1OC)CC(=O)N(CCCNCCc1ccccc1)C=C2` had a Max inhibition of 81% and an inhibition at 3 µM of 60%.

`C=CCN(CCCN1C=Cc2cc(OC)c(OC)cc2CC1=O)CCc1ccc(Cl)cc1` gave a Max inhibition of 60% and an inhibition at 3 µM of 31%.

`C=CCN(CCCc1ccccc1)CCCN1C=Cc2cc(OC)c(OC)cc2CC1=O` registered a Max inhibition of 100% and an inhibition at 3 µM of 44%.

Regarding `COc1ccc(CCNCCCN2CCc3cc(OC)c(OC)cc3CC2=O)cc1OC`, the Max inhibition worked out at 68% and the inhibition at 3 µM was 40%.

The compound `COc1ccc(CCNCCCN2C=Cc3cc(OC)c(OC)cc3CC2=O)cc1OC` had a Max inhibition of 77% and an inhibition at 3 µM of 59%.

For `COc1cc2c(cc1OC)CC(=O)N(CCCNCCc1ccc(Cl)cc1)C=C2`, the Max inhibition was 68% and testing at 3 µM gave an inhibition of 60%.

`C=CCN(CCCN1C=Cc2cc(OC)c(OC)cc2CC1=O)CCc1ccc(OC)cc1`: the Max inhibition is 81% and the inhibition at 3 µM was determined as 80%.

Compound `C=CCN(CCCCc1ccccc1)CCCN1C=Cc2cc(OC)c(OC)cc2CC1=O` yielded a Max inhibition of 91% and an inhibition at 3 µM of 54%.

Consider `COc1ccc(CCN(CCCN2C=Cc3cc(OC)c(OC)cc3CC2=O)Cc2ccccc2)cc1OC`, for which the Max inhibition worked out at 59% and the inhibition at 3 µM is 25%.

In turn, `C=CCN(CCCN1C=Cc2cc(OC)c(OC)cc2CC1=O)CCc1ccc(OC)c(OC)c1` returned a Max inhibition of 69% and an inhibition at 3 µM of 34%.

The compound `C=CCN(CCCN1C=Cc2cc(OC)c(OC)cc2CC1=O)CCOc1ccccc1` registered a Max inhibition of 100% and an inhibition at 3 µM of 42%.

On to `COc1cc2c(cc1OC)CC(=O)N(CCCNCCCc1ccccc1)C=C2`, for which the Max inhibition is recorded as 60% and the inhibition at 3 µM worked out at 31%.
